Test results taken from PMC3493588 (2012).

Test system: d(CCG)8C (KR-2) (DNA, single strand) CCGCCGCCGCCGCCGCCGCCGCCGC
Experiment: tryptophan fluorescence quenching titration
Conditions: Na+ (0.01 M NaCl); 0.02 M Hepes, pH 7.5-7.7, 0.0001 M EDTA, 20 °C; half salt-reversal at 0.06 M Na+; weaker at higher NaCl

binding: yes
Substance: H-RWRWKL-NH2
